# Reference: patent publication US5874592A, “Physiologically active substance EI-2128-1” (Kyowa Hakko Kogyo Co., Ltd., priority 1996, dated 1999)
# pIC50: −log10 of the molar value.
# Legend:
# [1] = tested on: production of IL-1β by human monocyte-derived THP-1 cells; test: Inhibitory activity against the production of IL-1β by LPS-stimulated THP-1 cells (ELISA); format: cell-based; conditions: LPS 25 μg/ml, 4 hours, PMA-differentiated THP-1 cells, read-out: 50% inhibitory concentration against the IL-1 production by THP-1 cells stimulated by LPS
# Procedure: The inhibitory activity of the compound of the present invention, EI-2128-1, against the production of IL-1β by human monocyte-derived THP-1 cells (ATCC No. TIB 202) was examined in the following manner. The amount of IL-1β was determined by the ELISA method.
# THP-1 cells were suspended in RPMI1640 medium (Nissui Pharmaceutical Co., Ltd.) containing 10% inactivated fetal calf serum at a concentration of 1×10^5 cells/ml. The cell suspension was put into wells of a 24-well plate in an amount of 1 ml/well. Phorbol 12-myristate 13-acetate (PMA, final concentration: 30 nM) was added to the wells, followed by incubation in a 5% CO2 -incubator at 37° C. for 65 hours to differentiate the cells into macrophage.
# Then, the plate was gently washed with serum-free RPMI1640 medium to remove the cells which were not adhered to the wells, and the residue was cultured for 4 hours in serum-free RPMI1640 medium (1 ml/well) containing lipopolysaccharide (LPS, final concentration: 25 μg/ml) and the test compound (final concentration: 0.05-50 μg/ml).
# After the completion of culturing, the amount of IL-1β released into the culture supernatant was determined by using an IL-1β determination kit (Amersham Corp.).
# The IL-1 production inhibition rate was calculated according to the following equation to obtain IC50 (50% inhibitory concentration).
# IL-1 production inhibition rate (%)=(A-B)/(A-C)×100 […]
# [2] = tested on: Candida albicans ATCC 10231; test: Antibacterial activity, agar dilution method; format: cell-based; conditions: ATCC10231; Candida albicans ATCC 10231, agar dilution, pH 7.0
# [3] = tested on: Enterococcus hirae ATCC 10541; test: Antibacterial activity, agar dilution method; format: cell-based; conditions: ATCC10541; Enterococcus hirae ATCC 10541, agar dilution, pH 7.0
# [4] = tested on: Staphylococcus aureus subsp. aureus ATCC 6538P; test: Antibacterial activity, agar dilution method; format: cell-based; conditions: ATCC6538P, pH 7.0
# [5] = tested on: Bacillus subtilis No. 10707; test: Antibacterial activity, agar dilution method; format: cell-based; conditions: Bacillus subtilis No. 10707, agar dilution, pH 7.0
# [6] = tested on: Proteus vulgaris ATCC 6897; test: Antibacterial activity, agar dilution method; format: cell-based; conditions: ATCC6897; Proteus vulgaris ATCC 6897, agar dilution, pH 7.0
# [7] = tested on: Klebsiella pneumoniae subsp. pneumoniae ATCC 10031; test: Antibacterial activity, agar dilution method; format: cell-based; conditions: ATCC10031; Klebsiella pneumoniae subsp. pneumoniae ATCC 10031, agar dilution, pH 7.0
# Solubility = format: physicochemical; conditions: methanol, acetonitrile, and chloroform
smiles,measurement,setting,value
CCCCCCC(C)CC(C)/C=C/C(=O)NC1CC2(OC1O)C1OC1C(=O)C1OC12 (centres unmarked) [EI-2128-1],pIC50,[1],7.00
same,MIC,[2],42 µg/mL
same,MIC,[3],0.33 µg/mL
same,MIC,[4],0.33 µg/mL
same,MIC,[5],0.16 µg/mL
same,MIC,[6],42 µg/mL
same,MIC,[7],21 µg/mL
same,Solubility,Solubility,"Readily soluble in methanol, acetonitrile, and chloroform"
